In brackets after ≈: the same amount, converted by molar mass.
target: not listed separately; assay: Displacement of methyl green from DNA (unknown origin) incubated in dark for 24 hrs; conditions: not given

Row | IC50 | Compound
1 | 80.7 µM | CCOC(=O)C1=C(N/N=C(/C(=O)Br)c2ccc(Cl)cc2)Nc2[nH]nc(C)c2C1c1ccc(N(C)C)cc1 (stereo not given)
2 | 39.4 to 82.8 µM | COc1ccc(C2C(C#N)=C(NC(=O)c3ccccc3)Nc3[nH]nc(-c4ccccc4)c32)cc1 (stereo not given)
3 | 39.4 to 82.8 µM | COc1ccc(C2C(C#N)=C(NC(=O)/C=C/C(=O)O)Nc3[nH]nc(-c4ccccc4)c32)cc1 (stereo not given)
4 | 39.4 to 82.8 µM | COc1ccc(C2C(C#N)=C(/N=C/OC(C)=O)Nc3[nH]nc(-c4ccccc4)c32)cc1 (stereo not given)

test system: Staphylococcus aureus; assay: Antibacterial activity against Staphylococcus aureus ATCC 29213 after 24 hrs by two-fold serial dilution method; assay type: functional; conditions: ATCC 29213, 24 h

Row | MIC | Compound
5 | 716 µM (≈ 250 µg/mL) | CC1(C)S[C@@H]2[C@H](NC(=O)[C@H](N)c3ccccc3)C(=O)N2[C@H]1C(=O)O [AMPICILLIN]
6 | 427 µM (≈ 250 µg/mL) | CCOC(=O)C1=C(N/N=C(/C(=O)Br)c2ccc(Cl)cc2)Nc2[nH]nc(C)c2C1c1ccc(N(C)C)cc1 (stereo not given)
7 | 954 µM (≈ 500 µg/mL) | CCOC(=O)C1=C(N/N=C(/Cl)c2ccc([N+](=O)[O-])cc2)Nc2[nH]nc(C)c2C1c1ccc(N(C)C)cc1 (stereo not given)
8 | 955 µM (≈ 500 µg/mL) | CCOC(=O)C1=C(N/N=C(/Br)c2ccccc2)Nc2[nH]nc(C)c2C1c1ccc(N(C)C)cc1 (stereo not given)

test system: Bacillus cereus; assay: Antibacterial activity against Bacillus cereus UW 85 after 24 hrs by two-fold serial dilution method; assay type: functional; conditions: UW 85, 24 h

Row | MIC | Compound
9 | 1430 µM (≈ 500 µg/mL) | CC1(C)S[C@@H]2[C@H](NC(=O)[C@H](N)c3ccccc3)C(=O)N2[C@H]1C(=O)O [AMPICILLIN]
10 | 427 µM (≈ 250 µg/mL) | CCOC(=O)C1=C(N/N=C(/C(=O)Br)c2ccc(Cl)cc2)Nc2[nH]nc(C)c2C1c1ccc(N(C)C)cc1 (stereo not given)
11 | 1910 µM (≈ 1000 µg/mL) | CCOC(=O)C1=C(N/N=C(/Cl)c2ccc([N+](=O)[O-])cc2)Nc2[nH]nc(C)c2C1c1ccc(N(C)C)cc1 (stereo not given)
12 | 955 µM (≈ 500 µg/mL) | CCOC(=O)C1=C(N/N=C(/Br)c2ccccc2)Nc2[nH]nc(C)c2C1c1ccc(N(C)C)cc1 (stereo not given)

test system: Escherichia coli; assay: Antibacterial activity against Escherichia coli ATCC 12435 after 24 hrs by two-fold serial dilution method; assay type: functional; conditions: ATCC 12435, 24 h

Row | MIC | Compound
13 | 28.6 µM (≈ 9.99 µg/mL) | CC1(C)S[C@@H]2[C@H](NC(=O)[C@H](N)c3ccccc3)C(=O)N2[C@H]1C(=O)O [AMPICILLIN]
14 | 1710 µM (≈ 1000 µg/mL) | CCOC(=O)C1=C(N/N=C(/C(=O)Br)c2ccc(Cl)cc2)Nc2[nH]nc(C)c2C1c1ccc(N(C)C)cc1 (stereo not given)
15 | 1910 µM (≈ 1000 µg/mL) | CCOC(=O)C1=C(N/N=C(/Cl)c2ccc([N+](=O)[O-])cc2)Nc2[nH]nc(C)c2C1c1ccc(N(C)C)cc1 (stereo not given)
16 | 955 µM (≈ 500 µg/mL) | CCOC(=O)C1=C(N/N=C(/Br)c2ccccc2)Nc2[nH]nc(C)c2C1c1ccc(N(C)C)cc1 (stereo not given)

test system: Pseudomonas aeruginosa; assay: Antibacterial activity against Pseudomonas aeruginosa PAO1 after 24 hrs by two-fold serial dilution method; assay type: functional; conditions: PAO1, 24 h

Row | MIC | Compound
17 | 1710 µM (≈ 1000 µg/mL) | CCOC(=O)C1=C(N/N=C(/C(=O)Br)c2ccc(Cl)cc2)Nc2[nH]nc(C)c2C1c1ccc(N(C)C)cc1 (stereo not given)
18 | 954 µM (≈ 500 µg/mL) | CCOC(=O)C1=C(N/N=C(/Cl)c2ccc([N+](=O)[O-])cc2)Nc2[nH]nc(C)c2C1c1ccc(N(C)C)cc1 (stereo not given)
19 | 478 µM (≈ 250 µg/mL) | CCOC(=O)C1=C(N/N=C(/Br)c2ccccc2)Nc2[nH]nc(C)c2C1c1ccc(N(C)C)cc1 (stereo not given)

test system: Candida albicans; assay: Antifungal activity against Candida albicans after 48 hrs by two-fold serial dilution method; assay type: functional; conditions: not given

Row | MIC | Compound
20 | 3410 µM (≈ 2000 µg/mL) | CCOC(=O)C1=C(N/N=C(/C(=O)Br)c2ccc(Cl)cc2)Nc2[nH]nc(C)c2C1c1ccc(N(C)C)cc1 (stereo not given)
21 | 3820 µM (≈ 2000 µg/mL) | CCOC(=O)C1=C(N/N=C(/Cl)c2ccc([N+](=O)[O-])cc2)Nc2[nH]nc(C)c2C1c1ccc(N(C)C)cc1 (stereo not given)
22 | 1910 µM (≈ 1000 µg/mL) | CCOC(=O)C1=C(N/N=C(/Br)c2ccccc2)Nc2[nH]nc(C)c2C1c1ccc(N(C)C)cc1 (stereo not given)

test system: Aspergillus fumigatus; assay: Antifungal activity against Aspergillus fumigatus 293 after 48 hrs by two-fold serial dilution method; assay type: functional; conditions: Aspergillus fumigatus, 293, 48 h

Row | MIC | Compound
23 | 3410 µM (≈ 2000 µg/mL) | CCOC(=O)C1=C(N/N=C(/C(=O)Br)c2ccc(Cl)cc2)Nc2[nH]nc(C)c2C1c1ccc(N(C)C)cc1 (stereo not given)
24 | 1910 µM (≈ 1000 µg/mL) | CCOC(=O)C1=C(N/N=C(/Cl)c2ccc([N+](=O)[O-])cc2)Nc2[nH]nc(C)c2C1c1ccc(N(C)C)cc1 (stereo not given)
25 | 1910 µM (≈ 1000 µg/mL) | CCOC(=O)C1=C(N/N=C(/Br)c2ccccc2)Nc2[nH]nc(C)c2C1c1ccc(N(C)C)cc1 (stereo not given)

test system: Aspergillus flavus; assay: Antifungal activity against Aspergillus flavus 3375 after 48 hrs by two-fold serial dilution method; assay type: functional; conditions: Aspergillus flavus, 3375, 48 h

Row | MIC | Compound
26 | 3410 µM (≈ 2000 µg/mL) | CCOC(=O)C1=C(N/N=C(/C(=O)Br)c2ccc(Cl)cc2)Nc2[nH]nc(C)c2C1c1ccc(N(C)C)cc1 (stereo not given)
27 | 1910 µM (≈ 1000 µg/mL) | CCOC(=O)C1=C(N/N=C(/Cl)c2ccc([N+](=O)[O-])cc2)Nc2[nH]nc(C)c2C1c1ccc(N(C)C)cc1 (stereo not given)
28 | 1910 µM (≈ 1000 µg/mL) | CCOC(=O)C1=C(N/N=C(/Br)c2ccccc2)Nc2[nH]nc(C)c2C1c1ccc(N(C)C)cc1 (stereo not given)

test system: Chromobacterium violaceum; assay: Inhibition of quorum sensing system in Chromobacterium violaceum ATCC 12472 assessed as diameter of violacein pigment inhibition at 5 mg/ml after 48 hrs; conditions: not given

Row | diameter of the inhibition zone (DIZ) | Compound
29 | < 2 mm | CCOC(=O)C1=C(N/N=C(/C(=O)Br)c2ccc(Cl)cc2)Nc2[nH]nc(C)c2C1c1ccc(N(C)C)cc1 (stereo not given)
30 | < 2 mm | CCOC(=O)C1=C(N/N=C(/Cl)c2ccc([N+](=O)[O-])cc2)Nc2[nH]nc(C)c2C1c1ccc(N(C)C)cc1 (stereo not given)
31 | 11 mm | CCOC(=O)C1=C(N/N=C(/Br)c2ccccc2)Nc2[nH]nc(C)c2C1c1ccc(N(C)C)cc1 (stereo not given)

test system: HepG2; assay: Antitumor activity against human HepG2 cells assessed as inhibition of cell proliferation after 48 hrs by MTT assay; assay type: functional, cell-based; conditions: HepG2, 48 h

Row | IC50 | Compound
32 | 50.2 µM | CCOC(=O)C1=C(N/N=C(/C(=O)Br)c2ccc(Cl)cc2)Nc2[nH]nc(C)c2C1c1ccc(N(C)C)cc1 (stereo not given)
33 | 55.5 µM | CCOC(=O)C1=C(N/N=C(/Cl)c2ccc([N+](=O)[O-])cc2)Nc2[nH]nc(C)c2C1c1ccc(N(C)C)cc1 (stereo not given)
34 | 72 µM | CCOC(=O)C1=C(N/N=C(/Br)c2ccccc2)Nc2[nH]nc(C)c2C1c1ccc(N(C)C)cc1 (stereo not given)

test system: MCF7; assay: Antitumor activity against human MCF7 cells assessed as inhibition of cell proliferation after 48 hrs by MTT assay; assay type: functional, cell-based; conditions: MCF7, 48 h

Row | IC50 | Compound
35 | 46.3 µM | CCOC(=O)C1=C(N/N=C(/C(=O)Br)c2ccc(Cl)cc2)Nc2[nH]nc(C)c2C1c1ccc(N(C)C)cc1 (stereo not given)
36 | 52.7 µM | CCOC(=O)C1=C(N/N=C(/Cl)c2ccc([N+](=O)[O-])cc2)Nc2[nH]nc(C)c2C1c1ccc(N(C)C)cc1 (stereo not given)
37 | 78.4 µM | CCOC(=O)C1=C(N/N=C(/Br)c2ccccc2)Nc2[nH]nc(C)c2C1c1ccc(N(C)C)cc1 (stereo not given)

test system: HeLa; assay: Antitumor activity against human HeLa cells assessed as inhibition of cell proliferation after 48 hrs by MTT assay; assay type: functional, cell-based; conditions: read-out: IC50

Row | IC50 | Compound
38 | 49.3 µM | CCOC(=O)C1=C(N/N=C(/C(=O)Br)c2ccc(Cl)cc2)Nc2[nH]nc(C)c2C1c1ccc(N(C)C)cc1 (stereo not given)
39 | 46.2 µM | CCOC(=O)C1=C(N/N=C(/Cl)c2ccc([N+](=O)[O-])cc2)Nc2[nH]nc(C)c2C1c1ccc(N(C)C)cc1 (stereo not given)
40 | 75.7 µM | CCOC(=O)C1=C(N/N=C(/Br)c2ccccc2)Nc2[nH]nc(C)c2C1c1ccc(N(C)C)cc1 (stereo not given)

— ChEMBL document CHEMBL4270617, “Design, synthesis, antimicrobial, antiquorum-sensing and antitumor evaluation of new series of pyrazolopyridine derivatives” (Eur J Med Chem, 2018)
